Data from paper PMC8728392, “Synthesis, Anticancer Assessment, and Molecular Docking of Novel Chalcone-Thienopyrimidine Derivatives in HepG2 and MCF-7 Cell Lines” (Oxidative Medicine and Cellular Longevity, 2021).
Blank lines part the entries; values can stand above or below the molecule they belong to.

Legend:
HepG2 cell line = experiment: Cell cycle analysis (PI, flow cytometry); type: cell-based, human
Procedure: Cell cycle analysis was performed to decide if the newly synthesized thienopyrimidine derivatives arrested the cell cycle and at what phase of the cell cycle, the HepG2 and MCF-7 cell lines were arrested. The experiments were performed as previously described by Tolba et al.. HepG2 and MCF-7 cell lines were seeded and incubated with the tested compounds in 6-well plates. After incubation overnight, the cells were washed twice with ice-cold phosphate-buffered saline (PBS), detached by EDTA-trypsinization from the plates, harvested by centrifugation, fixed in ice-cold 70% (v/v) ethanol, and washed with phosphate-buffered saline (PBS, pH 7.2 ± 0.2). The cells were resuspended with 0.1 mg/ml RNase, stained with […] propidium iodide (PI), and analyzed by flow cytometry using a FACSCalibur flow cytometer (BD Biosciences, San Jose, CA). CellQuest software (Becton Dickinson) was used to determine the cell cycle distributions after incubation with 5-FU or tested compounds. Exposure of HepG2 and MCF-7 cell lines to these compounds could interfere with the normal cell cycle distribution.

[1] = test system: Bax, Bcl-2, caspase-3, and caspase-9 in HepG2; experiment: RT-PCR relative expression of apoptosis markers; type: cell-based, human; conditions: IC50, 8-hour incubation, vs control
From the text: We determined the effect of IC50 concentration of newly synthesized thienopyrimidine derivatives (3a-e and 3g and 3b and 3g) on the relative expression levels of some markers of apoptosis in HepG2 and MCF-7 cell lines, respectively. These included the antiapoptotic marker Bcl-2 as well as the apoptotic markers Bax, caspase-3, and caspase-9 [33]. BIORAD iScript™ One-Step RT-PCR kit with SYBR® Green was used to assess the relative levels of expression of apoptosis markers. The measurement was carried out according to the technique of reverse transcription polymerase chain reaction (RT-PCR) using the Rotor-Gene RT-PCR system, and the method of the used kit was done based on the manufacturer's instructions. The procedure of this assay included the following:
Based on the manufacturer's instructions, the Qiagen RNeasy Extraction Kit (Qiagen Ltd., UK) was used to isolate mRNA from approximately 1 × 10^7 cells according to the cell line.
Mix all the following reagents to get the total volume (50 μl): 2X SYBR® Green RTPCR reaction mixture (25 μl), forward primer […] (1.5 μl), reverse primer […] (1.5 μl), nuclease-free water (11 μl), RNA template (1 pg-100 ng total RNA) (10 μl), and iScript reverse transcriptase (1 μl) for One-Step RT-PCR.
The thermal cycler (Rotor-Gene) program used was as follows: one cycle for reverse transcription at 50°C for 10 minutes and one cycle for RT inactivation/Hot-start activation at 95°C for 5 minutes and then 45 cycles for qPCR (10 s at 95°C, 30 seconds for annealing at 55°C, and 30 seconds for extension at 72°C), and this is followed by the final extension (one cycle) at 72°C for 10 minutes.

[2] = test system: human liver cancer cell line (HepG2); experiment: MTT assay, cytotoxicity; type: cell-based; conditions: HepG2, 24 hours
Procedure: (§1) Cancer cell lines were manipulated according to the method described by Sigounas et al.. In this method, the cell lines were grown as adherent monolayers in T75 flasks with Dulbecco's modified Eagle's medium (DMEM) supplemented with 10% Fetal Bovine Serum (FBS), 2 mM L-glutamine, and 1% streptomycin/penicillin. The cells were left to grow in a CO2 incubator at 37°C, 5% CO2, and 95% humidity until their confluence.
(§2) The 3-[4,5-dimethylthiazol-2-yl]-2,5-diphenyltetrazolium bromide (MTT) colorimetric assay was used to examine the sensitivity of cells to tested compounds (as anticancer drugs), as previously described. This assay depends on the production of a purple formazan derivative from the yellow tetrazolium bromide (MTT) by mitochondrial succinate dehydrogenase in viable cells. The percentage of cell survival was calculated as follows: (1) Percentage of survival=O.D.treated cells/O.D.control cells×100.
(§3) For preliminary screening of the cytotoxicity of synthesized compounds 3a-g, cells exposed to DMSO were used as a control. Plotting the relationship between the survival score and the compound concentration and calculating the IC50 (the concentration required to inhibit cell viability by 50%) were performed for each test compound according to Li et al. in comparison with the reference standard anticancer agent, 5-FU.
(§4) The 3-[4,5-dimethylthiazol-2-yl]-2,5-diphenyltetrazolium bromide (MTT) colorimetric assay was used to examine the sensitivity of cells to tested compounds (as anticancer drugs), as previously described by Hussein et al. (2017). This assay depend on the production of a purple formazan derivative from the yellow tetrazolium bromide (MTT) by mitochondrial succinate dehydrogenase in viable cells. Briefly, after harvesting the cells with 0.25% trypsin, the cell lines were suspended in DMEM. Cells were seeded in 96-well microtiter plates at a concentration of 5×10^4 cell/well in a fresh medium and left to attach to the plates for 24 h before treatment with the tested compounds 3a-g. Test compounds were dissolved in dimethyl sulfoxide (DMSO). After 24 hours, cells were incubated with the appropriate concentration ranges of compounds, the wells were diluted to […] with fresh medium and incubation was continued for 24 hours. Three wells were used for each concentration. After 24 hours of treatment, 20 μl of MTT solution (5mg/ml) was added and subsequently the plates were further incubated for 4 hours to allow the viable cells to biotransform the yellow-colored MTT into purple formazan crystals. The optical density (O.D.) of each well was measured spectrophotometrically at […] with an enzyme-linked immunosorbent assay (ELISA) microplate reader (BioTek, EL-800, USA). The percentage of cell survival was calculated as follows: […]

[3] = test system: human breast cancer cell line (MCF-7); experiment: MTT assay, cytotoxicity; type: cell-based; conditions: MCF-7, 24 hours
Procedure: as §1, §2, §3, §4

MCF-7 cell line = experiment: Annexin V-FITC/PI apoptotic assay; type: cell-based, human
From the text: (§5) Annexin V-fluorescein isothiocyanate (FITC) and counterstaining with propidium iodide (PI) using the Annexin V-FITC/PI apoptosis detection kit (BD Biosciences, San Diego, CA) were employed to distinguish early and late apoptotic cells according to the manufacturer's directions. Annexin V conjugated with fluorescein isothiocyanate was used to quantify the loss of phosphatidylserine asymmetry in cell membranes involved in apoptosis, and propidium iodide can distinguish between early apoptosis, late apoptotic, and necrotic cells. Analyses were achieved by using a FACSCalibur flow cytometer (BD Biosciences, San Jose, CA).
(§6) Cells were gently washed twice with PBS accompanied by tryptic digestion (0.25% trypsin/EDTA) and washed yet again with PBS. All the cells including the floating and adherent ones were harvested, pooled and stained with […] in 1× binding buffer for 15 min at room temperature in the dark. Analyses were achieved by FACS Calibur flow cytometer (BD Biosciences, San Jose, CA).

HepG2 cells = experiment: Annexin V-FITC/PI apoptotic assay; type: cell-based, human
From the text: as §5, §6

[4] = test system: A549 human lung adenocarcinoma cells; parameters: method as in PMID 29660690; conditions: cited from earlier work
Bcl-2 26me = test system: Bcl-2 26me; parameters: method as in PMID 19027294; conditions: cited from earlier work
Bcl-2 16me = test system: Bcl-2 16me; parameters: method as in PMID 19027294; conditions: cited from earlier work

melting point: 181 to 182 °C
Structure (SMILES): CCOC(=O)Cn1c(SCC(=O)Nc2ccc(C(=O)/C=C\c3ccccc3Cl)cc2)nc2sc3c(c2c1=O)CCN(C(=O)OCC)C3 [Compound 3a, Ethyl (Z)-2-((2-((4-(3-(2-Chlorophenyl)acryloyl)phenyl)amino)-2-oxoethyl)thio)-3-(2-ethoxy-2-oxoethyl)-4-oxo-3,5,6,8-tetrahydropyrido[4′,3′:4,5]thieno[2,3-d]pyrimidine-7(4H)-carboxylate]
cell population in G2/M compared with control cells (HepG2 cell line): substantial increase
cell population in pre-G1 phases compared with control cells (HepG2 cell line): significant increase
expression levels of Bcl-2 [1]: noticeably decreased
survival percentage (mean ± SEM) ([2]; 4.8828125 μg/ml): 103.5 ± 0.033%
survival percentage (mean ± SEM) ([2]; 9.765625 μg/ml): 87.8 ± 0.087%
survival percentage (mean ± SEM) ([2]; 19.53125 μg/ml): 74.2 ± 0.012%
survival percentage (mean ± SEM) ([2]; 39.0625 μg/ml): 73.8 ± 0.019%
survival percentage (mean ± SEM) ([2]; 78.125 μg/ml): 66.9 ± 0.018%
survival percentage (mean ± SEM) ([2]; 156.25 μg/ml): 40.1 ± 0.021%
survival percentage (mean ± SEM) ([2]; 312.5 μg/ml): 28.4 ± 0.009%
survival percentage (mean ± SEM) ([2]; 625 μg/ml): 21.7 ± 0.012%
survival percentage (mean ± SEM) ([2]; 1250 μg/ml): 20.5 ± 0.004%
survival percentage (mean ± SEM) ([2]; 2500 μg/ml): 19.5 ± 0.001%
survival percentage (mean ± SEM) ([2]; 5000 μg/ml): 19.1 ± 0.001%
survival percentage (mean ± SEM) ([2]; 10000 μg/ml): 18.5 ± 0.001%
survival percentage (mean ± SEM) ([3]; 4.8828125 μg/ml): 150.0 ± 0.171%
survival percentage (mean ± SEM) ([3]; 9.765625 μg/ml): 132.9 ± 0.132%
survival percentage (mean ± SEM) ([3]; 19.53125 μg/ml): 124.4 ± 0.079%
survival percentage (mean ± SEM) ([3]; 39.0625 μg/ml): 129.1 ± 0.038%
survival percentage (mean ± SEM) ([3]; 78.125 μg/ml): 108.4 ± 0.084%
survival percentage (mean ± SEM) ([3]; 156.25 μg/ml): 101.8 ± 0.284%
survival percentage (mean ± SEM) ([3]; 312.5 μg/ml): 101.6 ± 0.022%
survival percentage (mean ± SEM) ([3]; 625 μg/ml): 64.9 ± 0.008%
survival percentage (mean ± SEM) ([3]; 1250 μg/ml): 9.8 ± 0.003%
survival percentage (mean ± SEM) ([3]; 2500 μg/ml): 6.28 ± 0.003%
survival percentage (mean ± SEM) ([3]; 5000 μg/ml): 6.0 ± 0.001%
survival percentage (mean ± SEM) ([3]; 10000 μg/ml): 6.0 ± 0.063%
total, early, and late apoptosis as well as necrosis relative to the control cells (MCF-7 cell line): significant increase
early and late apoptosis (HepG2 cells): significantly exhibited early and late apoptosis

Structure (SMILES): N.N.[Cl][Pt][Cl] [cisplatin]
IC50 [4]: 15.3 µM

Structure (SMILES): Cc1c(Cl)c(C(=O)N(c2ccccc2)c2ccccc2)nn1-c1ccccc1C(=O)N1Cc2ccccc2CC1CN (stereo not shown) [DRO]
IC50 (Bcl-2 26me): 0.1 µM
IC50 (Bcl-2 16me): 0.03 µM

Structure (SMILES): C=CCn1c(SCC(=O)Nc2ccc(C(=O)/C=C/c3cc(OC)c(OC)c(OC)c3)cc2)nnc1-c1ccc(OC)cc1 [compound I]
IC50 [4]: 4.4 µM
